Assay results as given in US6525059B1, “Substituted pyrazoles as p38 kinase inhibitors” (G. D. Searle & Company, priority 1998, dated 2003).

How the values were obtained:
TNF-α = assay: LPS stimulation of TNF production by U937 cells; format: cell-based, human; conditions: Homo sapiens; for inhibition at 1 µM: U-937, @ 1.0 uM, read-out: U937 Cell % inhib @ conc.
How it was run: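 PMA-differentiated human U937 cells (20 ng/ml PMA, 24 h, then 24-48 h rest) at 2 million cells/ml, 0.1% DMSO final, stimulated with E. coli LPS (100 ng/ml final) for 4 h at 37° C. TNF-α in medium measured by ELISA; IC50 in μM.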

human p38 kinase alpha = molecular target: T1, human p38 kinase alpha (Homo sapiens, UniProt Q16539); assay: p38 kinase in vitro assay, phosphorylation of biotinylated PHAS-I with gamma 32P-ATP; format: biochemical; conditions: read-out: P38 alpha kinase IC50
T1 construct: The coding region of the human p38a cDNA was obtained by PCR-amplification from RNA isolated from the human monocyte cell line THP.1; GST (N); made in house; host or cells: E. coli DH10B
How it was run: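 Radiometric filter-capture read-out: streptavidin plates trap biotin-PHAS-I labelled by activated (MKK6) human p38α from γ-32P-ATP. Buffer 25 mM HEPES pH 7.5, 10 mM magnesium acetate, 50 μM cold ATP; reactions 1 h or overnight at 30 °C; inhibitors 10-fold dilutions 100 to 0.001 μM, triplicates, 1% DMSO.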

T1 sequence (Q16539 whole entry): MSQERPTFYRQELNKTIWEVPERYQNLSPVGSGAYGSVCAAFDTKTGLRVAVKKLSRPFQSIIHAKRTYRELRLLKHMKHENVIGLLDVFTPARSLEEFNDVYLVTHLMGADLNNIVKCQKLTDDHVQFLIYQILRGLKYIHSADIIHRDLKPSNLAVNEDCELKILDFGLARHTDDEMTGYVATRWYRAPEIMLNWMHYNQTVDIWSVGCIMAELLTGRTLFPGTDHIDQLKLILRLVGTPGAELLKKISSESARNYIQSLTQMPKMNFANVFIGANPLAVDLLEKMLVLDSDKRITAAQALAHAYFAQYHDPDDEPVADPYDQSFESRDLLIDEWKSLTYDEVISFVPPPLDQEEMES

Row | SMILES | IC50 (human p38 kinase alpha) [nM] | IC50 (TNF-α; U-937, TNF production, LPS-stimulated human U937 cells, read-out: U937 Cell IC50) [nM] | inhibition at 1 µM (TNF-α) [%]
1 | O=C(NCc1[nH]nc(-c2ccc(F)cc2)c1-c1ccncc1)c1ccco1 [Example B-0209] | 290 | – | 8
2 | CCNC(=O)NCc1[nH]nc(-c2ccc(F)cc2)c1-c1ccncc1 [Example B-0212] | 120 | – | 28
3 | CCCNC(=O)NCc1[nH]nc(-c2ccc(F)cc2)c1-c1ccncc1 [Example B-0213] | 310 | – | 39
4 | CC(=O)Nc1nc(C)c(S(=O)(=O)NCc2[nH]nc(-c3ccc(F)cc3)c2-c2ccncc2)s1 [Example B-0222] | 400 | – | 29
5 | CC(=O)Nc1ccc(S(=O)(=O)NCc2[nH]nc(-c3ccc(F)cc3)c2-c2ccncc2)cc1 [Example B-0223] | 200 | – | 1
6 | O=S(=O)(NCc1[nH]nc(-c2ccc(F)cc2)c1-c1ccncc1)c1ccc(Cl)cc1 [Example B-0225] | 47 | – | 37
7 | O=S(=O)(NCc1[nH]nc(-c2ccc(F)cc2)c1-c1ccncc1)c1cccc(Cl)c1Cl [Example B-0230] | 41 | – | 30
8 | O=S(=O)(NCc1[nH]nc(-c2ccc(F)cc2)c1-c1ccncc1)c1ccc(F)cc1Cl [Example B-0231] | 55 | – | 40
9 | O=S(=O)(NCc1[nH]nc(-c2ccc(F)cc2)c1-c1ccncc1)c1c(Cl)cccc1Cl [Example B-0233] | 95 | – | 43
10 | O=S(=O)(NCc1[nH]nc(-c2ccc(F)cc2)c1-c1ccncc1)c1cccc(C(F)(F)F)c1 [Example B-0247] | 82 | – | 75
11 | Cc1noc(C)c1S(=O)(=O)NCc1[nH]nc(-c2ccc(F)cc2)c1-c1ccncc1 [Example B-0251] | 310 | – | 1
12 | O=S(=O)(NCc1[nH]nc(-c2ccc(F)cc2)c1-c1ccncc1)c1cccc2nonc12 [Example B-0252] | 41 | – | 54
13 | O=C(NCc1ccc(S(=O)(=O)NCc2[nH]nc(-c3ccc(F)cc3)c2-c2ccncc2)s1)c1ccccc1 [Example B-0255] | 320 | – | 68
14 | Cc1c(C)c(S(=O)(=O)NCc2[nH]nc(-c3ccc(F)cc3)c2-c2ccncc2)c(C)c2c1OC(C)(C)CC2 [Example B-0257] | 1710 | – | 11
15 | O=S(=O)(NCc1[nH]nc(-c2ccc(F)cc2)c1-c1ccncc1)c1ccc(-c2ccccn2)s1 [Example B-0258] | 370 | – | 63

Second part, led by results:

Row | IC50 (human p38 kinase alpha) [nM] | IC50 (TNF-α; U-937, TNF production, LPS-stimulated human U937 cells, read-out: U937 Cell IC50) [nM] | SMILES | inhibition at 1 µM (TNF-α) [%]
16 | 57 | – | O=C(NCc1[nH]nc(-c2ccc(F)cc2)c1-c1ccncc1)C(F)(F)F [Example B-0210] | 67
17 | 250 | – | CNC(=O)NCc1[nH]nc(-c2ccc(F)cc2)c1-c1ccncc1 [Example B-0211] | 30
18 | 160 | – | NC(=O)NCc1[nH]nc(-c2ccc(F)cc2)c1-c1ccncc1 [Example B-0214] | 50
19 | 48 | – | Cc1ccc(F)cc1S(=O)(=O)NCc1[nH]nc(-c2ccc(F)cc2)c1-c1ccncc1 [Example B-0232] | 24
20 | 1310 | – | O=S(=O)(NCc1[nH]nc(-c2ccc(F)cc2)c1-c1ccncc1)c1cccc(Br)c1 [Example B-0235] | 90
21 | 77 | – | O=S(=O)(NCc1[nH]nc(-c2ccc(F)cc2)c1-c1ccncc1)c1ccccc1C(F)(F)F [Example B-0236] | 46
22 | 200 | – | O=S(=O)(NCc1[nH]nc(-c2ccc(F)cc2)c1-c1ccncc1)c1ccccc1Cl [Example B-0240] | 70
23 | 100 | – | O=S(=O)(NCc1[nH]nc(-c2ccc(F)cc2)c1-c1ccncc1)c1cc(Cl)cc(Cl)c1 [Example B-0241] | 45
24 | < 100 | – | O=S(=O)(NCc1[nH]nc(-c2ccc(F)cc2)c1-c1ccncc1)c1ccc(F)c(Cl)c1 [Example B-0242] | 78
25 | < 100 | > 1000 | COc1ccc(C)cc1S(=O)(=O)NCc1[nH]nc(-c2ccc(F)cc2)c1-c1ccncc1 [Example B-0246] | –
